Consider eight compounds from paper PMC6156138, “Combination of a Latency-Reversing Agent With a Smac Mimetic Minimizes Secondary HIV-1 Infection in vitro” (Frontiers in Microbiology, 2018).

What all share (type): cell-based
Data set [1] deals with latent HIV-1-infected U1 cells. The experiment in a line: HIV reactivation from latent cells: supernatant p24 antigen. As to conditions: day 2, single drug (Figure 1B). As for the experimental part:
(§1) The reactivation of HIV-1 from latently infected cells was determined by the measurement of supernatant p24 antigen and intracellular HIV-1 RNA levels. ACH-2 cells or U1 cells (5 × 10^5 cells/mL) were placed in 96-well plates, and then the cells were incubated with different concentrations of drugs for 24 h to extract RNA and for 48 h to collect the supernatant. The increase in supernatant p24 antigen levels was measured using […] G1200 (Fujirebio, Tokyo, Japan). The total RNA was extracted using an RNeasy Mini Kit (Qiagen, Hilden, Germany), following the manufacturer’s protocols. The cDNA was synthesized using PrimeScript RT Master Mix (Takara Bio, Shiga, Japan), and quantitative real-time PCR analyses for the intracellular HIV-1 RNA were carried out with PowerUp^TM SYBR Green Master Mix (Applied Biosystems, Foster City, CA, United States). The oligonucleotide primers used were as follows: 5′-[…]-3′ (forward) and 5′-[…]-3′ (reverse) for HIV-RNA detection; 5′-[…]-3′ (forward) and 5′-[…]-3′ (reverse) for β-actin. The HIV-RNA expressions were normalized with that of β-actin, which was indicated as the relative quantity, and the increase in HIV-1 RNA levels in the presence of a drug was compared with that without a drug.
(§2) FIGURE 1 (A,B) The increase in viral production from ACH-2 cells (A) and U1 cells (B) was examined by supernatant p24 antigen levels on day 2. (C,D) Changes in the intracellular HIV-1 mRNA levels due to treatment with these drugs in ACH-2 cells (C) and U1 cells (D) after 24 h of incubation.

The test system of data set [2] is U937. The experiment in a line: Cytotoxicity assay (Cytotoxicity LDH Assay Kit). As to conditions: U937 cells, 24 h; read-out: CC50 ± SD against U937. As for the experimental part: (§3) To determine the cytotoxicity induced by LRAs and its related compounds, cells (5 × 10^5 cells/mL) were cultured in the presence or absence of LRA. After 24 h, cytotoxicity assays were performed using a Cytotoxicity LDH Assay Kit (Dojindo, Kumamoto, Japan) according to the manufacturer’s instructions. The number of living cells with the drug was measured and compared with those without the drug, and data are shown as percentage (%) of control.

Data set [3] concerns Jurkat. The experiment in a line: Cytotoxicity assay (Cytotoxicity LDH Assay Kit). As to conditions: Jurkat cells, 24 h; read-out: CC50 ± SD against Jurkat. On the procedure:
as §3

Data set [4] relates to A3.01. The data set is described as follows: Cytotoxicity assay (Cytotoxicity LDH Assay Kit). The conditions noted are these: A3.01 cells, 24 h; read-out: CC50 ± SD against A3.01. As for the experimental part: as §3
In data set [5] the test system is J1.1. The experiment in a line: Cytotoxicity assay (Cytotoxicity LDH Assay Kit). The conditions noted are these: J1.1 cells, 24 h; read-out: CC50 ± SD against J1.1. On the procedure:
as §3

In data set [6] the test system is U1. The data set is described as follows: Cytotoxicity assay (Cytotoxicity LDH Assay Kit). The conditions noted are these: U1 cells, 24 h; read-out: CC50 ± SD against U1. On the procedure: as §3
Data set [7] deals with HL-60. The experiment in a line: Cytotoxicity assay (Cytotoxicity LDH Assay Kit). The conditions noted are these: HL-60 cells, 24 h; read-out: CC50 ± SD against HL-60. On the procedure: as §3
In data set [8] the test system is OM10.1. The experiment in a line: Cytotoxicity assay (Cytotoxicity LDH Assay Kit). The conditions noted are these: OM10.1 cells, 24 h; read-out: CC50 ± SD against OM10.1. On the procedure: as §3
The subject of data set [9] is ACH-2. The data set is described as follows: Cytotoxicity assay (Cytotoxicity LDH Assay Kit). As to conditions: ACH-2 cells, 24 h; read-out: CC50 ± SD against ACH-2. On the procedure: as §3
Data set [10] deals with latent HIV-1-infected ACH-2 cells. The data set is described as follows: HIV reactivation from latent cells: supernatant p24 antigen. As to conditions: ACH-2 cells; for viral production (supernatant p24 antigen levels): day 2, single drug (Figure 1A). On the procedure: as §1, §2
FIGURE 2 (A) Effect of birinapant when combined with TNF-α. The supernatant p24 levels with birinapant (1∼100 nM) in ACH-2 cell culture on day 2 are shown in white bars, and p24 values with birinapant when combined with TNF-α (10 ng/ml) are shown in black bars. (B) HIV-1 production from ACH-2 cells when reactivated by PEP005 (0.05∼50 nM) for 24 h. (C) Changes in the living cell numbers in the presence of drug(s) on days 1, 3, and 5.

In data set [11] the test system is HIV-1 NL4-3. The data set is described as follows: Antiviral assay, HIV-1 NL4-3 in MT-4 cells. The conditions noted are these: MT-4 cells, cultured for 12 days, single drug. On the procedure: as §3, with “Antiviral assays using wild type HIV-1 (HIV-1 NL4-3) cells and MT-4 cells were conducted as previously described ([Maeda et al., 2014]; [Takamatsu et al., 2015]). To” for “To”
Supplementary file Data_Sheet_1.PDF: FIGURE S1 The combined effect of an RT inhibitor (EFdA/MK-8591) ([Nakata et al., 2007]; [Kawamoto et al., 2008]; [Maeda et al., 2014]) and PKC activator (PEP005) on the replication of HIV-1 NL4-3 in MT-4 cells. MT-4 cells were infected with HIV-1 NL4-3 in the presence or absence of drug(s), cultured for 12 days, and the supernatant p24 levels were measured. Click here for additional data file.

The nature of data set [12]: Cytotoxicity assay (Cytotoxicity LDH Assay Kit). As to conditions: human. On the procedure: as §3
In data set [13] the test system is cIAP. The data set is described as follows: Determination of cIAP expression (western blotting). As to conditions: ACH-2 cells, 24 h; birinapant 50 nM, PEP005 5 nM, TNF-α 10 ng/ml. As for the experimental part:
ACH-2 cells (1 × 10^6 cells/ml) were treated with different concentrations of the drug for 24 h, and the cells were washed twice with PBS. Cells were homogenized by CelLytic M Cell Lysis Reagent (Sigma-Aldrich, St. Louis, MO, United States) containing a protease inhibitor cocktail (Nacalai Tesque, Kyoto, Japan) and were incubated at room temperature (RT) for 15 min. The cells were then centrifuged at 13,000 rpm for 15 min, and the supernatant of the whole cell lysate was collected. The bicinchoninic acid (BCA) protein assay (Thermo Scientific, Rockford, IL, United States) was used to measure the actual protein amount in the treated and untreated cells. The protein extracts were separated through sodium dodecyl sulfate polyacrylamide gel electrophoresis (SDS-PAGE) and then were blotted onto a Trans Blot Turbo polyvinylidene difluoride (PVDF) membrane (Bio-Rad, Hercules, CA, United States). Protein bands were visualized using 3,3′,5,5′-tetramethylbenzidine (TMB) solution (Wako Pure Chemical). The sources of the antibodies were as follows: c-IAP1 (D5G9), c-IAP2 (58C7), and XIAP (3B6) were purchased from Cell Signaling Technology (Danvers, MA, United States); β-actin (C4) was purchased from Santa Cruz Biotechnology.
Supplementary file Data_Sheet_5.PDF: FIGURE S5 Western blotting (WB) analysis for IAP family proteins in ACH-2 cells. Cells were exposed to birinapant (50 nM) in the presence or absence of PEP005 (5 nM), with TNF-α (10 ng/ml) co-treatment for 24 h, and cell lysates were used for WB analysis. Click here for additional data file.
For orientation: In western blotting, separated proteins are transferred to a membrane and probed.

[14] abbreviates: A3.01 cells, read-out: CC50 ± SD against A3.01.
Setting [15] is: ACH-2 cells, read-out: CC50 ± SD against ACH-2.
Setting [16] is: HL-60 cells, read-out: CC50 ± SD against HL-60.
The mark [17] stands for this setting: J1.1 cells, read-out: CC50 ± SD against J1.1.
Where [18] appears, read: Jurkat cells, read-out: CC50 ± SD against Jurkat.
Where [19] appears, read: OM10.1 cells, read-out: CC50 ± SD against OM10.1.
[20] abbreviates: U1 cells, read-out: CC50 ± SD against U1.
[21] abbreviates: U937 cells, read-out: CC50 ± SD against U937.

As usually defined, the CC50 is the concentration giving 50% cytotoxicity.

Where two headings read alike, the source gives them in different places. Where only a bound is given, the exact number is not on record here.

As for `FC(F)(F)Oc1ccc2nc(-c3ccc(OCCOCCOc4ccc(-c5nc6ccc(OC(F)(F)F)cc6[nH]5)nc4)cn3)[nH]c2c1` [AI-10-49], the “viral production (supernatant p24 antigen levels)” value (from here on “viral production”) in [1] and in data set [10] was “failed to increase the p24 levels” each time. Moreover, the CC50 is above 100 µM in data set [2]; 1.1 ± 0.07 µM in data set [3]; above 100 µM in [4]; above 100 µM in data set [5]; above 100 µM in data set [6]; above 100 µM in [7]. In addition, the CC50 in data set [8] was above 100 µM; in data set [9], 41 ± 10 µM.

Turning to `C#C[C@]1(CO)O[C@@H](n2cnc3c(N)nc(F)nc32)C[C@@H]1O` [EFdA/MK-8591, 4′-ethynyl-2-fluoro-2′-deoxyadenosine], in data set [11], the “replication of HIV-1 NL4-3 (supernatant p24)” value was “potently inhibited the replication”.

With `CCCCOc1nc(N)c2c(n1)N(Cc1cccc(CN3CCCC3)c1)CC(=O)N2` [GS-9620], the “viral production” value in [1] and in [10] was “failed to increase the p24 levels” each time. Besides, the CC50 at 24 h in data set [12] (setting [14]) is above 100 µM; in data set [12] (setting [15]) it was above 100 µM; in data set [12] (setting [16]) it was above 100 µM; in data set [12] (setting [17]) it was 35 ± 1.3 µM; in data set [12] (setting [18]), 23 ± 0.3 µM; in data set [12] (setting [19]), above 100 µM. Moreover, the CC50 at 24 h in [12] (setting [20]) and in data set [12] (setting [21]) was above 100 µM each time.

For the compound `CCNC(=O)C[C@@H]1N=C(c2ccc(Cl)cc2)c2cc(OC)ccc2-n2c(C)nnc21` [GSK525762A], the “viral production” value in data set [1] and in data set [10] was “increased viral production” in each case.

Turning to `Cc1sc2c(c1C)C(c1ccc(Cl)cc1)=N[C@@H](CC(=O)OC(C)(C)C)c1nnc(C)n1-2` [JQ-1], the “viral production” value in data set [1] and in data set [10] was “increased viral production” each time.

Take `O=C(CCCCCCC(=O)Nc1ccccc1)NO` [SAHA]: the “viral production” value in data set [1] and in [10] was “increased viral production” each time. The CC50 at 24 h was above 100 µM in data set [12] (setting [14]); 9 ± 1.2 µM in [12] (setting [15]); above 100 µM in [12] (setting [16]); above 100 µM in data set [12] (setting [17]); 90 ± 2 µM in data set [12] (setting [18]); above 100 µM in data set [12] (setting [19]). The CC50 at 24 h in data set [12] (setting [20]) and in data set [12] (setting [21]) was above 100 µM in each case.

In the case of Ro5-3335, the “viral production” value in data set [1] and in data set [10] was “failed to increase the p24 levels” each time. Further, the CC50 in [2], in [3], in data set [4], in data set [5], in data set [6] and in data set [7] was above 100 µM in each case. The CC50 in data set [8] and in [9] was above 100 µM each time.

On to TNF-α, for which, in data set [13], the “cIAP expression (western blotting)” value was “upregulation of cIAP-1 (and cIAP-2)”. Also, the “increase of supernatant HIV-1 (p24) levels compared with unstimulated cells” value in data set [10] (TNF-α 10 ng/ml, day 2 (Figure 2A)) is above 20 fold. In addition, the “supernatant HIV-1 p24 levels” value in data set [10] (after 24 h, PEP005 5 nM and higher (Figure 2B)) was “reactivated and increased the supernatant HIV-1 p24 levels”.
